Experimental findings from PMC5829242, “Chiral DOTA chelators as an improved platform for biomedical imaging and therapy applications” (Nature Communications, 2018) are described below.

Molecules are shown by their SMILES.

A short description of data set [1]: 17O NMR water exchange (residence time of water co-ligand). The data set is classed as physicochemical. The settings on record: 17O NMR at 11.7T; for τM^310K, mean residence time of the water co-ligand at 310 K: q = 1 assumed. How it is done: (§1) Relaxivity measurements were performed on a Bruker mq60 Minispec at 1.41T and 37 °C. Longitudinal (T1) relaxation times were measured using an inversion recovery experiment with 10 inversion times of duration ranging between 0.05 × T1 and 5 × T1. Transverse (T2) relaxation times were measured using a CPMG pulse sequence. Relaxivity (r1, r2) was determined from the slope of a plot of 1/T1,2 vs [Gd] for at least 4 concentrations of Gd(III) (data shown in Supplementary Figs. 93–110). The T2 relaxation times of ^17O at 11.7T were estimated from the full-width at half-height of the H2^17O resonance at temperatures ranging from 278 to 368K. Reduced relaxation rates (1/T2r) were calculated by taking the difference of 1/T2 measured in the presence and absence of Gd(III) and dividing by the mole fraction of coordinated water molecules, assuming q = 1. […] However, at the high magnetic field used, and because of the very-fast water exchange rates observed, there was negligible contribution of T1e, and the data were refit to a two-parameter model using the water exchange rate at 310K (τM) and enthalpy of activation for water exchange (ΔH^‡) as adjustable parameters. The Gd-O hyperfine coupling constant, A/ħ, was assumed to be -3.8 × 10^6 rad s^−1 [57], [58]. Samples were prepared in neat H2O adjusted and enriched with a small amount of H2^17O.

Data set [2] is described as follows: Relaxivity measurements at 1.41T and 37 °C. In kind it is physicochemical. How it is done: as §1
Data set [3] can be described thus: Gd complexes biodistribution studies (ICP-MS). In kind it is in vivo, BALB/c mice. Conditions: 0.025 mmol/kg i.v., 5-360 min post injection. The source says: Most commercially available Gd(III)-based MRI contrast agents are excreted rapidly and exclusively through the renal pathway. One of the few exceptions is an acyclic compound, Gd-EOB-DTPA, which has a mixed clearance (50% renal, 50% biliary) and is used for imaging of the liver and biliary system. Gd-BOPTA and MS-325 have predominantly renal elimination with <10% elimination through the biliary system. […] We illustrated with our studies that there is a significant variation in the biodistribution profiles despite the small structural differences of the chiral substituents (Supplementary Fig. 20). Gd biodistribution in BALB/c mice was measured by ICP-MS at 5, 15, 30, 60, 180 and 360 min following injection. […] Low levels of Gd(III) are present at 6 h post injection. […] The specific and unusual localisation of [GdL2]^− in the liver makes it a potential hepatobiliary-specific MRI contrast agent.
(§2) Gd concentrations were determined using an Agilent 8800-QQQ ICP-MS system. All samples were diluted with 0.1% Triton X-100 in 5% nitric acid. Lutetium internal standard was steadily introduced to the ICP-MS from an external source during the analysis. A linear calibration curve for each metal ranging from 0.1 ppb to 200 ppb was generated daily for the quantification.
Complexes [GdL1]^−, [GdL2]^− and [GdL5]^− were prepared by dissolving in saline solution, while [GdDOTA]^− (Dotarem) was diluted in saline solution. Eight-week-old male BALB/c mice (purchased from BioLASCO, Taiwan) each weighing approximately 25 g were administered with a single dose of 0.025 mmol/kg compound ([GdL1]^−, [GdL2]^−, [GdDOTA]^− and [GdL5]^−; 3 mice per compound per time point) in a 100 μl volume via lateral tail vein injection. The mice were then euthanized, and their blood collected by cardiac puncture at each time point (5, 15, 30, 60, 180 or 360 min post injection). A control group of 4 mice was treated with saline and killed at time point 0. The liver, lung, heart, kidneys, spleen and brain were removed from the animals and weighed. Gd content in tissue and blood samples was quantified via ICP-MS analysis. All experiments were performed in accordance with the NIH Guide for the Care and Use of Laboratory Animals and approved by the Institutional Animal Care and Use Committee of Massachusetts General Hospital or by the Department of Health of the Hong Kong Government and the Animal Subjects Ethics Sub-Committee of Hong Kong Polytechnic University.

A short description of data set [4]: In vivo dynamic T1-weighted MR imaging at 4.7T. On the set-up: species or system C57/Bl6 mice. The settings on record: 0.1 mmol per kg i.v., 4.7 tesla, n = 1. How it is done: Dynamic T1-weighted MR imaging at 4.7 tesla was performed with C57/Bl6 mice before, during, and after 0.1 mmol per kg injection of each compound (Fig. 7).
(§3) Imaging was performed at 4.7T using a small-bore animal scanner (Bruker Biospec). Pilot dynamic MRI studies were performed with [GdL1]^−, [GdL2A]^−, [GdL2B]^− and [GdL5]^−; n = 1 per compound. Six to eight weeks male C57/Bl6 mice were anaesthetised with isoflurane (1%–2%) and placed in a specially designed cradle with body temperature maintained at 37 °C. The tail vein was catherised for intravenous delivery of the contrast agent while the animal was positioned in the scanner. A pneumatic pillow was placed on the mouse to enable respiratory monitoring (SA Instruments), and the animal’s body temperature was maintained with warm air. The imaging protocol utilised a three-dimensional fast low angle shot (3D FLASH) with a […] flip angle, 9.00 ms repetition rate, 2.39 ms echo time, 4.8 cm × 2.4 cm × 2.4 cm field of view with a 0.3 mm isotropic resolution. Images were acquired with either 2 or 8 averages giving an acquisition time of 2 min or 8 min, respectively. Baseline images were acquired with both 2 and 8 averages, then the Gd complex (0.1 mmol per kg) was injected intravenously and the sequence with 2 averages was repeated for a period of 10 min to monitor blood clearance. At 10, 30, 45, 60, 75 and 90 min after probe injection, the sequence with 8 averages was repeated to monitor the clearance of contrast from the liver and kidneys. After imaging was performed, the mouse was removed from the scanner and euthanized at 2 h post injection and the tissues were harvested for Gd quantification by ICP-MS.

Data set [5] can be described thus: Ex vivo biodistribution 2 h post injection after MRI study (ICP-MS). The settings on record: 0.1 mmol per kg i.v. In kind it is in vivo, C57/Bl6 mice. How it is done:
as §2, §3

Data set [6] in a line: Kinetic stability of Gd complexes monitored by RP-HPLC (acid, base, DTPA, DOTA, ZnCl2). In kind it is physicochemical. The settings on record: for stability and interconversion: one equivalent of DOTA ligand in 1N HCl. The source says:
The kinetic stability of GBCAs, which reflects the dissociation of the Gd ions from its chelate is used to predict the stability in vivo[10]. The proton-assisted dissociation and direct attack of the endogenous ions are regarded as two main pathways that induced the dissociation of the chelates. The inertness of our Gd(III) complexes was maintained up to 7 days after addition of 1000 equivalents of a competitive ligand, DTPA (Supplementary Fig. 7 & 8). […] The harshest condition tried was setting the complexes of [GdL2A]^−, [GdL2B]^− and [GdDOTA]^− in 1N HCl (Fig. 5, Supplementary Figs. 13 - 15).
Fig. […] Error bars for [GdL2A]^- and [GdL2B]^- refer to the standard error of mean (S.E.M.), statistical data fitting analysis (n = 3; s.e.m.)

Setting [7] is: 1N HCl, room temperature, after 487 h.

On to `C[C@H]1CN(CC(=O)[O-])[C@@H](C)CN(CC(=O)[O-])[C@@H](C)CN(CC(=O)[O-])[C@@H](C)CN1CC(=O)[O-].[Gd+3]` [[GdL1]^−], for which, in data set [1], the “ΔH^‡, enthalpy change of activation of water exchange” value came to 3.82 ± 0.335 kcal/mol and the “τM^310K, mean residence time of the water co-ligand at 310 K” value (“τM^310K, mean residence time” for short) is reported as 13 ± 0.4 ns. This molecule also yielded a r1 relaxivity in data set [2] (4.5% w/v HSA (1.4T)) of 4.5 mM⁻¹ s⁻¹. The molecule also displayed a r1 relaxivity in data set [2] (Human Plasma (1.4T)) of 4.6 mM⁻¹ s⁻¹. In data set [2] (Water (1.4T)), this molecule yielded a r1 relaxivity of 4.1 mM⁻¹ s⁻¹. Besides, the “Gd biodistribution / elimination profile” value in data set [3] is “near equal renal and hepatic clearance”. In addition, the “MR enhancement of liver and gall bladder” value in data set [4] was “some enhancement of the liver and gall bladder”. In data set [5], the “Gd concentration in blood” value is reported as 1.04 nmol Gd per gram tissue, the “Gd concentration in gall bladder” value is listed as 139.87 nmol Gd per gram tissue, the “Gd concentration in heart” value came out at 1.68 nmol Gd per gram tissue and the “Gd concentration in intestines” value is recorded as 7.75 nmol Gd per gram tissue. Also, in data set [5], the “Gd concentration in kidney” value was 16.71 nmol Gd per gram tissue, the “Gd concentration in liver” value came to 1.64 nmol Gd per gram tissue, the “Gd concentration in lung” value turned out to be 1.81 nmol Gd per gram tissue and the “Gd concentration in muscle” value is reported as 4.29 nmol Gd per gram tissue. Besides, in data set [5], the “Gd concentration in spleen” value came out at 6.63 nmol Gd per gram tissue, the “Gd concentration in stomach” value is 11.35 nmol Gd per gram tissue and the “Gd concentration in tail” value is 4.57 nmol Gd per gram tissue.
On to `CC[C@H]1CN(CC(=O)[O-])[C@@H](CC)CN(CC(=O)[O-])[C@@H](CC)CN(CC(=O)[O-])[C@@H](CC)CN1CC(=O)[O-].[Gd+3]` [[GdL2A]^−], for which, in data set [1], the “ΔH^‡, enthalpy change of activation of water exchange” value stood at 10.3 ± 0.478 kcal/mol and the “τM^310K, mean residence time” value amounted to 6.6 ± 0.4 ns. The molecule further displayed a r1 relaxivity in data set [2] (4.5% w/v HSA (1.4T)) of 4.7 mM⁻¹ s⁻¹. In addition, in data set [2] (Human Plasma (1.4T)), the r1 relaxivity came to 4.7 mM⁻¹ s⁻¹. The r1 relaxivity in data set [2] (Water (1.4T)) was 4.2 mM⁻¹ s⁻¹. Further, the decomplexation entry in data set [6] (0.1N NaOH, over 10 days) is on record as “negligible decomplexation”. Also, the decomplexation result in data set [6] (setting [7]) was “almost no decomplexation”. Besides, the decomplexation entry in data set [6] (1N HNO3, over 10 days) is “negligible decomplexation”. The decomplexation entry in data set [6] (100 equivalents of zinc chloride at 50 °C, ~100 h) is on record as “no obvious decomplexation”. Moreover, in data set [6], the stability and interconversion entry is “no interconversion was observed”. For the same molecule, the “MR enhancement of liver and gall bladder” value in data set [4] is “very similar behaviour to [GdL2B]^−”. For the same molecule, in data set [5], the “Gd concentration in gall bladder” value is recorded as 854 nmol Gd per gram tissue. In data set [5] (listed as GdL2A), the “Gd concentration in blood” value is on record as 0.49 nmol Gd per gram tissue, the “Gd concentration in gall bladder” value came to 854.21 nmol Gd per gram tissue, the “Gd concentration in heart” value is 1.82 nmol Gd per gram tissue and the “Gd concentration in intestines” value came to 0.05 nmol Gd per gram tissue. Further, in data set [5] (listed as GdL2A), the “Gd concentration in kidney” value amounted to 20.92 nmol Gd per gram tissue, the “Gd concentration in liver” value is on record as 10.47 nmol Gd per gram tissue, the “Gd concentration in lung” value was determined as 3.61 nmol Gd per gram tissue and the “Gd concentration in muscle” value was determined as 5.18 nmol Gd per gram tissue. Further, in data set [5] (listed as GdL2A), the “Gd concentration in spleen” value is 4.72 nmol Gd per gram tissue, the “Gd concentration in stomach” value is listed as 3.14 nmol Gd per gram tissue and the “Gd concentration in tail” value was determined as 2.13 nmol Gd per gram tissue.
With `CC[C@H]1CN(CC(=O)[O-])[C@@H](CC)CN(CC(=O)[O-])[C@@H](CC)CN(CC(=O)[O-])[C@@H](CC)CN1CC(=O)[O-].[Gd+3]` [[GdL2B]^−], in data set [1], the “τM^310K, mean residence time” value stood at 1.1 ± 0.1 ns. Further, the r1 relaxivity in data set [2] (4.5% w/v HSA (1.4T)) was determined as 4.8 mM⁻¹ s⁻¹. In addition, the r1 relaxivity in data set [2] (Human Plasma (1.4T)) worked out at 4.9 mM⁻¹ s⁻¹. In data set [2] (Water (1.4T)), this molecule had a r1 relaxivity of 3.9 mM⁻¹ s⁻¹. The decomplexation result in data set [6] (0.1N NaOH, over 10 days) was “negligible decomplexation”. Besides, the decomplexation entry in data set [6] (setting [7]) was “only minimal decomplexation”. In data set [6] (1N HNO3, over 10 days), the decomplexation result is “negligible decomplexation”. The stability and interconversion result in data set [6] is “no interconversion was observed”. Besides, in data set [4], the “MR enhancement of liver and gall bladder” value is “profound enhancement of the liver and gall bladder”; the “MR signal in the kidneys over time / at 60 min post injection” value is listed as “approached baseline”. Moreover, the “Gd concentration in gall bladder” value in data set [5] is given as 1066 nmol Gd per gram tissue. In addition, in data set [5] (listed as GdL2B), the “Gd concentration in blood” value was 0.60 nmol Gd per gram tissue, the “Gd concentration in gall bladder” value was 1066.22 nmol Gd per gram tissue, the “Gd concentration in heart” value was 3.09 nmol Gd per gram tissue and the “Gd concentration in intestines” value is 47.07 nmol Gd per gram tissue. Moreover, in data set [5] (listed as GdL2B), the “Gd concentration in kidney” value turned out to be 7.42 nmol Gd per gram tissue, the “Gd concentration in liver” value came out at 1.12 nmol Gd per gram tissue, the “Gd concentration in lung” value is listed as 2.63 nmol Gd per gram tissue and the “Gd concentration in muscle” value came to 5.43 nmol Gd per gram tissue. Moreover, in data set [5] (listed as GdL2B), the “Gd concentration in spleen” value was determined as 4.82 nmol Gd per gram tissue, the “Gd concentration in stomach” value is 1.05 nmol Gd per gram tissue and the “Gd concentration in tail” value amounted to 2.64 nmol Gd per gram tissue.
